Where two headings read alike, the source gives them in different places.

What all share (format): cell-based
The target in test [1] is T1, human α1A-adrenergic receptor (Homo sapiens, UniProt P35348).
T1 sequence (P35348 1-466): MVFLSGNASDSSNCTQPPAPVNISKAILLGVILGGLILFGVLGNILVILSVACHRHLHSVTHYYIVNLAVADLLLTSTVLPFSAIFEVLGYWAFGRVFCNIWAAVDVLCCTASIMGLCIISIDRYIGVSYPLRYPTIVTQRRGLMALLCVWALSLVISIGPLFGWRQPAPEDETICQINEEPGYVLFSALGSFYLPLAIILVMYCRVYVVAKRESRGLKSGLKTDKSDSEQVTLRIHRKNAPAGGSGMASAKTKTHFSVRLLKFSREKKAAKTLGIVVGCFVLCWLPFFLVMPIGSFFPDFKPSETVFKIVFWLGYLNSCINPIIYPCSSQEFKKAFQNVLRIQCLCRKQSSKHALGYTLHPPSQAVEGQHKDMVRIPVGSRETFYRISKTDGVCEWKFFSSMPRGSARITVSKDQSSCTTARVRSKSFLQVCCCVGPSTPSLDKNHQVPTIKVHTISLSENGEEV
Description: Test Case 4-B: human α1A-adrenergic receptor agonist activity (Cerep cellular functional GPCR, alpha 1A). Also noted: expressed in transfected cells. Particulars: concentration 10 μM; for α1 receptor % of Control Agonist Response, Control; Epinephrine: epinephrine = 100%. An excerpt: (§1) Measurement of Human α1A-Adrenergic Receptor Agonist Activity
The human α1A-adrenergic receptor agonist activity] can be measured by […] Functional GPCR·Gs, alpha 1A (Ref. 722-36a) listed on p. 52 of the Cerep 2008 CATALOG IN VITRO PHARMACOLOGY & ADME-TOX.

Test [2] deals with T1, human α1A-adrenergic receptor. Description: Test Case 4-A: human α1A-adrenergic receptor agonist activity (HEK293, Ca flux, Fura-2). Also noted: expressed in transfected cells; host or cells: HEK293 cells, pcDNA3.1. On the procedure:
as §1
The human α1A-adrenergic receptor agonist activity is measured using HEK293 cells transfected by a human α1A gene inserted in pcDNA3.1 (Invitrogen). […] After loading for 30 minutes in a CO2 incubator, the excess Fura-2AM is removed by washing twice with assay buffer. After preparing the centrifuged cells to make 5×10^6 cells/mL by assay buffer, 80 μL/well is dispensed into 96-well UV plates (made by Corning) to make cell plates. Sample plates with the test compound diluted 10-fold by assay buffer from 10^−5 to 10^−12 M and cell plates are set in an FDSS4000 (made by Hamamatsu Photonics). After preincubating for 180 seconds, measurement of fluorescence intensity (excitation wavelength 340 nm, 380 nm, measurement wavelength 500 nm) is begun at 2-second intervals. After approximately 30 seconds of measurement, 20 μL of test sample from a sample plate is added to the cell plate, and measurement is continued for another 270 seconds. The Ca flux caused by the test compound is calculated taking the difference in the maximum value of the fluorescence intensity ratio at 340 nm and 380 nm after adding the test compound and the fluorescence intensity ratio before adding the test compound as the peak height.

Test [3] deals with T2, human β3-adrenergic receptor (Homo sapiens, UniProt P13945).
T2 construct: A full-length human β3 gene is obtained from a human genomic library (made by Clontech) using this as the probe; expressed in transfected cells; host or cells: CHO (Chinese hamster ovary) cells, pcDNA3
Put plainly: Test Case 1-B: human β3-adrenergic receptor agonist activity (cAMP-Screen, 96-well). On the procedure: Measurement of Human β3-Adrenergic Receptor Agonist Activity
The human β3-adrenergic receptor agonist activity is measured using CHO (Chinese hamster ovary) cells transfected by a human β3 gene inserted in pcDNA3 (Invitrogen). […] A full-length human β3 gene is obtained from a human genomic library (made by Clontech) using this as the probe. These cells are cultured in Ham's F-12 medium containing 10% fetal calf serum and 400 μg/mL genectin (Invitrogen). These cells are sown in 96-well plates to make 2×10^4 cells/well. After culturing for approximately 20 hours, they are allowed to stand for 15 minutes in 80 μL of serum-free Ham's F-12 medium. After first dissolving the test compound by DMSO, it is serially diluted by Ham's F-12 containing 100 mmol/L HEPES and 1 mmol/L isobutylmethylxanthine, and 20 μL is added to the cells. After culturing for 30 minutes, the medium is removed, and 0.1 mL of the assay/lysis buffer contained in the cAMP-Screen kit (made by Applied Bioscience) is added and incubated for 30 minutes at 37° C. The cAMP in this cell lysate is assayed by the above cAMP-Screen kit.

For test [4], the target named is T3, human β1-adrenergic receptor (Homo sapiens, UniProt P08588).
T3 construct: expressed in transfected cells; host or cells: CHO (Chinese hamster ovary) cells, pcDNA3
Description: Test Case 2-B: human β1-adrenergic receptor agonist activity. Particulars: read-out: β1 receptor I.A. How it is done: Measurement of Human β1-Adrenergic Receptor Agonist Activity
The human β1-adrenergic receptor agonist activity is measured by the same method as in Test Case 1-B using CHO (Chinese hamster ovary) cells transfected by a human β1 gene inserted in pcDNA3 (Invitrogen).

The target in test [5] is T4, human β2-adrenergic receptor (Homo sapiens, UniProt P07550).
T4 construct: expressed in transfected cells; host or cells: CHO (Chinese hamster ovary) cells, pcDNA3
Put plainly: Test Case 3-B: human β2-adrenergic receptor agonist activity. Particulars: read-out: β2 receptor I.A. On the procedure:
Measurement of Human β2-Adrenergic Receptor Agonist Activity
The human β2-adrenergic receptor agonist activity is measured by the same method as in Test Case 1-B using CHO (Chinese hamster ovary) cells transfected by a human β2 gene inserted in pcDNA3 (Invitrogen).

The mark [6] stands for this setting: HEK293; read-out: α1A receptor I.A.
Setting [7] is: Test Case 4-A; maximum response of norepinephrine = 100%; Table 4.
[8] abbreviates: 0.5 h; read-out: β3 receptor I.A.
The mark [9] stands for this setting: Test Case 4-A; HEK293 cells, Ca flux; Table 4.
[10] abbreviates: Test Case 1-B; maximum response of isoproterenol = 100%.

T2 sequence (P13945 whole entry): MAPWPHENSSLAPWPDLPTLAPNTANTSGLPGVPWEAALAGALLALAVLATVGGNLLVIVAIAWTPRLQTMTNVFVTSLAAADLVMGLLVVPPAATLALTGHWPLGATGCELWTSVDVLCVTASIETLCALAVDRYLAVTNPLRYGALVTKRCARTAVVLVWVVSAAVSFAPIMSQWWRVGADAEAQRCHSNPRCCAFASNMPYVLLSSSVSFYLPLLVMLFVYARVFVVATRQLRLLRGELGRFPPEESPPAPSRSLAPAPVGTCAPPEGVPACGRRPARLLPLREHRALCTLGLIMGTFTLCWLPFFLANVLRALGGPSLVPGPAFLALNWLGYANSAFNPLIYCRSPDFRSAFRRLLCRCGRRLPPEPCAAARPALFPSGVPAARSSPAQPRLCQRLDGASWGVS
T4 sequence (P07550 whole entry): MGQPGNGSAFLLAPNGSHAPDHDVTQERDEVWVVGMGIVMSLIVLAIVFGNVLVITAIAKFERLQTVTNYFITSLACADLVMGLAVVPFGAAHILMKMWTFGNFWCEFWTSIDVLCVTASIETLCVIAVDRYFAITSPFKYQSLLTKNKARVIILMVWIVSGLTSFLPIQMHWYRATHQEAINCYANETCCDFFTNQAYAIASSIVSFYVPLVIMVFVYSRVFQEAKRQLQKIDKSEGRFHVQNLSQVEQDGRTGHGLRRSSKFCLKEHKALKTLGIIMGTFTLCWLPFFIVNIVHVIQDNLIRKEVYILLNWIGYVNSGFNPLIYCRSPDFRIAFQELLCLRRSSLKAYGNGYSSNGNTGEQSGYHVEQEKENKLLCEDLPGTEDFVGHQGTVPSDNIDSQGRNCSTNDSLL
T3 sequence (P08588 whole entry): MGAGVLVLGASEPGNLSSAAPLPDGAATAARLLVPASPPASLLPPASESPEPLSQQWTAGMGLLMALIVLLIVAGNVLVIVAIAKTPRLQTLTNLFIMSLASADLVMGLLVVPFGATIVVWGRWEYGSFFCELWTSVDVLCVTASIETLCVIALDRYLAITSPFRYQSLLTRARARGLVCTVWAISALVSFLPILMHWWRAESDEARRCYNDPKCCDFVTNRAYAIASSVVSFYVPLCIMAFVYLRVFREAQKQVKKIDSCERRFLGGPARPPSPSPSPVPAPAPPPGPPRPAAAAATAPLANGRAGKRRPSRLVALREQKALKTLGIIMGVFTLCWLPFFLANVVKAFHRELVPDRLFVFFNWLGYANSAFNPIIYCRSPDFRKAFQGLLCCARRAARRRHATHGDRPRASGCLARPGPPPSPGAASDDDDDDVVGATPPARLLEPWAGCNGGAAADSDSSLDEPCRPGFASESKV

Regarding `CNC[C@H](O)c1ccc(O)c(O)c1` [Epinephrine, epinephrine, reference compound], the “α1 receptor % of Control Agonist Response, Control; Epinephrine” value in test [1] is 100%.

With `NC[C@H](O)c1ccc(O)c(O)c1` [Norepinephrine, reference compound], the “α1 receptor % of Control Agonist Response, Control; Epinephrine” value in test [1] stood at 116%. The “α1 receptor % of Control Agonist Response, Control; Norepinephrine” value in test [1] (norepinephrine = 100%) stood at 100%. Moreover, the Emax in test [2] (setting [6]) is 100%. Moreover, the “α1A receptor I.A.” value in test [2] (setting [7]) is recorded as 100%.

As for `COc1n[nH]c2cc(OCCNC[C@H](O)c3cccc(NS(=O)(=O)c4cccc(N)c4)c3)ccc12` [ex1, (R)-3-amino-N-(3-(1-hydroxy-2-(2-(3-methoxyindazol-6-yloxy)ethylamino)ethyl)phenyl)benzenesulfonamide], the Emax in test [3] (setting [8]) came to 110%; in test [4], 6%; in test [5] it was 1%; in test [2] (setting [6]), 0%. Besides, a half-maximal response in test [3] (Test Case 1-B; CHO cells, cAMP) (EC50) required 0.52 nM.

For `COc1n[nH]c2cc(OCCNC[C@H](O)c3cccc(NS(=O)(=O)c4cccnc4)c3)ccc12` [ex12, (R)-N-(3-(1-hydroxy-2-(2-(3-methoxyindazol-6-yloxy)ethylamino)ethyl)phenyl)pyridine-3-sulfonamide], the Emax in test [3] (setting [8]) was 52%; in test [4], 5%; in test [5] it was 5%; in test [2] (setting [6]), 0%. This compound came in with an EC50 in test [3] (Test Case 1-B; CHO cells, cAMP) of 31 nM.

Regarding `COc1n[nH]c2cc(OCCNC[C@H](O)c3cccc(NS(=O)(=O)c4cccc(Cl)c4)c3)ccc12` [ex13, (R)-3-chloro-N-(3-(1-hydroxy-2-(2-( ? - methoxyindazol-6-yloxy)ethylamino)ethyl)phenyl) benzenesulfonamide], the Emax in test [3] (setting [8]) is 82%; in test [4] it was 4%; in test [5], -4%; in test [2] (setting [6]), 0%. In test [3] (Test Case 1-B; CHO cells, cAMP), this compound showed an EC50 of 9.4 nM.

In the case of `CCc1n[nH]c2cc(OCCNC[C@H](O)c3cccc(NS(=O)(=O)c4ccsc4)c3)ccc12` [ex123, (R)-N-(3-(2-(2-(3-ethylindazol-6-yloxy)ethylamino)-1-hydroxyethyl)phenyl) thiophene-3-sulfonamide], the Emax in test [3] (setting [8]) was 50%; in test [2] (setting [6]), 0%. This compound gave an EC50 in test [3] (Test Case 1-B; CHO cells, cAMP) of 0.67 nM.

Consider `CCc1n[nH]c2cc(OCCNC[C@H](O)c3cccc(NS(=O)(=O)CC(F)(F)F)c3)ccc12` [ex125, (R)-N-(3-(2-(2-(3-ethylindazol-6-yloxy)ethylamino)-1-hydroxyethyl)phenyl)-2,2,2-trifluoro ? sulfonamide], for which the figures for the Emax in test [3] (setting [8]) and in test [2] (setting [6]) were 34% and 15%, respectively. In test [3] (Test Case 1-B; CHO cells, cAMP), the EC50 was 14 nM.

`CCc1n[nH]c2cc(OCCNC[C@H](O)c3cccc(NS(=O)(=O)C4CCC4)c3)ccc12` [ex150]: the figures for the Emax in test [3] (setting [8]) and in test [2] (setting [6]) were 85% and 61%, respectively. Also, the EC50 in test [3] (Test Case 1-B; CHO cells, cAMP) is 5.4 nM; in test [2] (setting [9]), 1280 nM.

In the case of `O=S(=O)(Nc1cccc([C@@H](O)CNCCOc2ccc3c(Cl)n[nH]c3c2)c1)C1CCC1` [ex179, (R)-N-(3-(2-(2-(3-chloroindazol-6-yloxy)ethylamino)-1-hydroxyethyl)phenyl)-cyclobutanesul-fonamide], the Emax in test [3] (setting [8]) is 93%; in test [2] (setting [6]) it was 26%. The EC50 in test [3] (Test Case 1-B; CHO cells, cAMP) came out at 17 nM; in test [2] (setting [9]), 436 nM.

With `O=S(=O)(Nc1cccc([C@@H](O)CNCCOc2ccc3c(C(F)(F)F)n[nH]c3c2)c1)c1ccccc1F` [ex189, (R)-2-fluoro-N-(3-(1-hydroxy-2-(2-(3-(trifluoromethyl)-indazol-6-yloxy)ethylamino)ethyl)phenyl)benzene-sulfonamide], the Emax in test [3] (setting [8]) came out at 91%; in test [2] (setting [6]) it was 1%. For the same compound, the EC50 in test [3] (Test Case 1-B; CHO cells, cAMP) worked out at 85 nM.

For the compound `O=S(=O)(Nc1cccc([C@@H](O)CNCCOc2ccc3c(C(F)(F)F)n[nH]c3c2)c1)C1CCC1` [ex210, (R)-N-(3-(1-hydroxy-2-(2-(3-(trifluoro-methyl)-indazol-6-yloxy)ethylamino)ethyl)phenyl)cyclo-clobutanesulfonamide], the Emax in test [3] (setting [8]) was 86%; in test [2] (setting [6]), 54%. Besides, the EC50 in test [3] (Test Case 1-B; CHO cells, cAMP) was found to be 17 nM; in test [2] (setting [9]), 1700 nM.

Regarding `Cn1cc(S(=O)(=O)Nc2cccc([C@@H](O)CNCCOc3ccc4c(C5CC5)n[nH]c4c3)c2)cn1` [ex225, (R)-N-(3-(2-(2-(3-cyclopropylindazol-6-yloxy)ethylamino)-1-hydroxyethyl)phenyl)-1-methyl-pyrazole-4-sul-fonamide], the values for the Emax in test [3] (setting [8]) and in test [2] (setting [6]) were 91% and 41%, respectively. The EC50 in test [3] (Test Case 1-B; CHO cells, cAMP) amounted to 5.7 nM; in test [2] (setting [9]), 981 nM.

In test [3] (Test Case 1-B; CHO cells, cAMP), `O=S(=O)(Nc1cccc([C@@H](O)CNCCOc2ccc3c(C4CC4)n[nH]c3c2)c1)C1CC1` [ex227, (R)-N-(3-(2-(2-(3-cyclopropylindazol-6-yloxy)ethylamino)-1-hydroxyethyl)phenyl)-cyclopropane-sulfonamide] had an EC50 of 31 nM. The “β3 receptor I.A.” value in test [3] (setting [10]) was 65%. Further, the “α1A receptor I.A.” value in test [2] (setting [7]) is recorded as 1%.

As to `O=S(=O)(Nc1cccc([C@@H](O)CNCCOc2ccc3c(C4CCC4)n[nH]c3c2)c1)C1CCC1` [ex233, (R)-N-(3-(2-(2-(3- ?], the Emax in test [3] (setting [8]) was found to be 73%; in test [2] (setting [6]) it was 9%. This compound came in with a concentration for a half-maximal effect (EC50) in test [3] (Test Case 1-B; CHO cells, cAMP) of 10 nM.

On to `Cc1n[nH]c2cc(OCCNC[C@H](O)c3cccc(NS(=O)(=O)C4CCCC4)c3)ccc12` [ex237, (R)—N-(3-(1-hydroxy-2-(2-(3-methylindazol-6-yloxy)ethylamino)ethyl)phenyl)cyclopentanesulfonamide], for which the Emax was 58% in test [3] (0.5 h, read-out: β3 receptor I.A.) and 0% in test [2] (HEK293, read-out: α1A receptor I.A.). The compound further showed an EC50 in test [3] (Test Case 1-B; CHO cells, cAMP) of 293 nM.

For `O=S(=O)(Nc1cccc([C@@H](O)CNCCOc2ccc3c(CO)n[nH]c3c2)c1)C1CCC1` [ex243, (R)—N-(3-(1-hydroxy-2-(2-(3-(hydroxymethyl)indazole-6-yloxy)ethylamino)ethyl)phenyl)cyclobutanesulfonamide], the Emax is 72% in test [3] (setting [8]) and 89% in test [2] (setting [6]). Besides, the EC50 in test [3] (Test Case 1-B; CHO cells, cAMP) amounted to 72 nM; in test [2] (setting [9]) it was 44 nM.

For “(R)-N-(3-(1-hydroxy- 2-(2-(3-iso- propylindazol-6-yloxy) ethylamino)ethyl) phenyl)cyclopro- panesulfonamide [ex228]”, a half-maximal response in test [3] (Test Case 1-B; CHO cells, cAMP) (EC50) required 14 nM. Moreover, the “β3 receptor I.A.” value in test [3] (setting [10]) worked out at 47%. In addition, the “α1A receptor I.A.” value in test [2] (setting [7]) is 0%.

Usually EC50 stands for the midpoint of the concentration-response curve. A higher EC50 goes with a less potent agent.

For the origin of these results see US20120225909A1, “INDAZOLE ANALOG” (priority 2009, published 2012).
